We go through 42 compounds from article PMC12390684 (Viruses, 2025).

Each structure is given as a SMILES string.

The target of this experiment is IN-GCN2 interaction (6xHis-IN / GST-GCN2) (UniProt P04585+Q9P2K8). Description: biochemical. Type of experiment: binding, HIV-1 IN; human GCN2. Particulars: screen, single dose 100 µM, single replicate; residual AlphaLISA signal normalized to DMSO control.
IN-GCN2 interaction (6xHis-IN / GST-GCN2), sequence (Q9P2K8 192-1024, other chains not shown): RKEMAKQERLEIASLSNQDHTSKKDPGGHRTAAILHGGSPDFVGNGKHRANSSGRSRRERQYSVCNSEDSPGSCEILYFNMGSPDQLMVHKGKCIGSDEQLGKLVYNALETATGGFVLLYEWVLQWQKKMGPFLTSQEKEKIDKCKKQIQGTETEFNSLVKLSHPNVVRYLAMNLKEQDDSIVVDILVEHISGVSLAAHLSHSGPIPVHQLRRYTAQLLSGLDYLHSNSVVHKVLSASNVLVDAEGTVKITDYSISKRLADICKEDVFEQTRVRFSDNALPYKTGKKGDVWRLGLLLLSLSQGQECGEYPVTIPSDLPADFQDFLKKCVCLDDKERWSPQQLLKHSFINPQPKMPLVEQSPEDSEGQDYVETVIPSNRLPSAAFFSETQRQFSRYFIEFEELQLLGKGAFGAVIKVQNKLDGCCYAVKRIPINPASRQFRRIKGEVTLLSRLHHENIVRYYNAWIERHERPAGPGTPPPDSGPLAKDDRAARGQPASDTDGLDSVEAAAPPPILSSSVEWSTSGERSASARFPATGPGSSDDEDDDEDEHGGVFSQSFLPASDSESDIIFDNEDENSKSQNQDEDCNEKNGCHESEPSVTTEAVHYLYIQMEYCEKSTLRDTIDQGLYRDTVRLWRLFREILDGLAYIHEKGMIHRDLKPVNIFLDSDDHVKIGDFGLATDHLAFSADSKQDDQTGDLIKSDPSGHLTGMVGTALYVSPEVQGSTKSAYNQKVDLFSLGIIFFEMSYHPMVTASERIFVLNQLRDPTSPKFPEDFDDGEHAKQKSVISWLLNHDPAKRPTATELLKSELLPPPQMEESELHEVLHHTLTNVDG
For `C=C1C(=O)C2=CC1CCC(=O)C1(C)CCC(OC(C)=O)C(C)(C)C1CC2O` (stereo not drawn) [NSC302979], the “IN-GCN2 interaction (%)” value amounted to 105.64%. For `COc1c(O)ccc2c1CN1CCc3cc4c(cc3C1C2)OCO4` (stereo not drawn) [NSC123389] the value was 87.65%; for `C/C=C(/C)C(=O)O[C@H]1CCN2CC=C(COC(=O)[C@@](O)([C@H](C)OC)C(C)(C)O)[C@H]12` [NSC30625], 106.60%; for `C=C1C(=O)O[C@H]2[C@H]1[C@H](OC(=O)/C(C)=C\C)C[C@]1(CO1)[C@@H]1[C@H](OC(C)=O)C=C(C)[C@]21O` [NSC104943], 118.84%. The figure for `COC1=C2C[C@@H](C)C[C@H](OC)[C@H](O)[C@@H](C)/C=C(\C)[C@H](OC(N)=O)[C@@H](OC)/C=C\C=C(/C)C(=O)NC(=CC1=O)C2=O` [NSC122750] is 116.21%; for `CC1=CC(=O)[C@@H]2C[C@H]1C2(C)C` [NSC6832] it is 90.37%. Turning to `[O-][N+]12CCCCC1CCCC2CO` (stereo not drawn) [NSC34552], the “IN-GCN2 interaction (%)” value amounted to 80.42%. For `C/C(=C\CC1=C(O)c2ccccc2C(=O)C1=O)CO` [NSC24872] the value was 132.67%; for `COC(=O)[C@]1(C)CCC[C@]2(C)C3=CC(=O)[C@@]4(C(C)C)O[C@H]4[C@]3(O)CC[C@@H]12` [NSC337783], 100.26%; for `O=c1ccn([C@H]2C[C@H](O)[C@@H](CO)O2)c(=O)[nH]1` [NSC23615], 82.13%. The figure for `CC(=O)O[C@H]1C[C@H](O[C@H]2[C@@H](O)C[C@H](O[C@H]3[C@@H](O)C[C@H](O[C@H]4CC[C@@]5(C)[C@H](CC[C@@H]6[C@@H]5CC[C@]5(C)[C@@H](C7=CC(=O)OC7)[C@@H](O)C[C@]65O)C4)O[C@@H]3C)O[C@@H]2C)O[C@H](C)[C@H]1O[C@@H]1O[C@H](CO)[C@@H](O)[C@H](O)[C@H]1O` [NSC7535] is 83.30%; for `CC(=O)CCCCn1c(=O)c2c(ncn2C)n(C)c1=O` [NSC637086] it is 87.24%; for `COC1=C(N)C(=O)c2nc(-c3nc(C(=O)O)c(C)c(-c4ccc(OC)c(OC)c4O)c3N)ccc2C1=O` [NSC45383] it is 84.72%.

For `C=C1C(=O)O[C@H]2[C@H]1CC/C(C)=C/CC[C@@]1(C)O[C@@H]21` [NSC157035], the “IN-GCN2 interaction (%)” value turned out to be 97.44%. For `NC(=O)NCCC[C@H](N)C(=O)O` [NSC27425] the value was 90.90%. For `CN1CCc2cc3c(cc2[C@H]1[C@@H]1OC(=O)c2c1ccc1c2OCO1)OCO3` [NSC32192] the value was 122.62%; for `CC1=C[C@H](O)[C@@H](O)[C@]2(C)[C@H]3[C@@]4(O)OC[C@@]35[C@@H](C[C@@H]12)OC(=O)C[C@H]5[C@@H](C)[C@H]4O` [NSC79404], 87.44%.

With `COC(=O)[C@H]1[C@H]2C[C@@H]3c4[nH]c5ccccc5c4CCN3C[C@H]2C[C@@H](OC(=O)c2cc(OC)c(OC)c(OC)c2)[C@@H]1OC` [NSC72138], the “IN-GCN2 interaction (%)” value is given as 30.11%. The figure for `COc1cc2c(cc1O)C[C@H]1c3c(c(OC)c4c(c3-2)OCO4)CCN1C` [NSC785179] is 39.12%; for `COc1ccc(-c2oc3cc(O)c(OC)c(O)c3c(=O)c2OC)cc1O` [NSC106969] it is 98.61%. Regarding `C[C@@H]1[C@H](O)[C@@H](C)/C=C/C=C/CC/C=C/C=C/C=C/C=C/C(O[C@H]2O[C@H](C)[C@@H](O)[C@H](N)[C@@H]2O)CC2O[C@](O)(CC(O)C(O)CCC(O)CC(O)CC(O)CC(=O)O[C@H]1C)CC(O)C2C(=O)O` (stereo partly drawn) [NSC150817], the “IN-GCN2 interaction (%)” value was 68.70%. For `CO/N=C1\CC(C)N2C(=O)C(C(C)C)NC(=O)C(NC(=O)c3c4nc5c(C(=O)NC6C(=O)NC(C(C)C)C(=O)N7C(C)CC(O)C7C(=O)N(C)CC(=O)N(C)C(C(C)C)C(=O)OC6C)ccc(C)c5oc-4c(C)c(=O)c3N)C(CO)OC(=O)C(C)N(C)C(=O)CN(C)C(=O)C12` (stereo not drawn) [NSC237671] the value was 81.33%; for `COc1cc([C@H]2c3cc(O)c(OC)cc3C[C@H]3C(=O)OC[C@H]23)ccc1O` [NSC4586], 86.55%; for `O=c1[nH]cnc2ccccc12` [NSC5863], 93.27%.

Consider `O=c1cc(-c2ccccc2)oc2ccccc12` [NSC19028], for which the “IN-GCN2 interaction (%)” value came to 58.68%. For the compound `O=C(O)CCCCCCC[C@@H](O)[C@@H](O)CCCCCCO` [NSC7668], the “IN-GCN2 interaction (%)” value is reported as 129.82%. For `CC(C)=CCc1c2c(c3occ(-c4ccc(O)c(O)c4)c(=O)c3c1O)C=CC(C)(C)O2` [NSC5113] the value was 36.50%; for `CO[C@H]1[C@@H](O)[C@@H](C)O[C@@H](OC2CCC3(C)C(CCC4C3C(O)CC3(C)C(C5=CC(=O)OC5)CCC43O)C2)[C@@H]1O` (stereo partly drawn) [NSC123977], 127.41%; for `Cc1cc2nc3[nH]c(=O)[nH]c(=O)c3nc2cc1C` [NSC96911], 89.81%. `Nc1nc2c(c(=O)[nH]1)N(C=O)C(CNc1ccc(C(=O)N[C@@H](CCC(=O)O)C(=O)O)cc1)CN2` (stereo partly drawn) [NSC3590]: the “IN-GCN2 interaction (%)” value came out at 94.67%. With `Br.CN1CCc2cc3c(cc2C1)OCO3` [NSC121859], the “IN-GCN2 interaction (%)” value was found to be 114.20%. For `C[C@@H](N)C(=O)NC(CO)C(O)C(N)C=O.Cl` (stereo partly drawn) [NSC278619] the value was 77.59%; for `CC1(C)[C@H](C(=O)O)CC[C@]1(C)C(=O)O` [NSC824], 90.14%; for `CCCn1cc2c3c(cccc31)[C@H]1C[C@@H](C)CN(C)[C@@H]1C2.O=C(O)C(O)C(O)C(=O)O` [NSC332294], 41.41%. In the case of `COc1ccc2c(c1OC)-c1c(OC)c(OC)cc3c1[C@H](C2)NCC3` [NSC785187], the “IN-GCN2 interaction (%)” value came to 70.21%.

For the compound `COc1ccc2c(c1)O[C@H]1c3ccc(O)cc3OC[C@@H]21` [NSC350085], the “IN-GCN2 interaction (%)” value is 73.66%. The figure for `COc1cc2c3c(c1OC)-c1ccccc1C[C@H]3N(C)CC2` [NSC785145] is 66.76%; for `CC(=O)CCC(=O)O` [NSC3716] it is 123.74%.

On to `CC1(C)C(=O)N2c3ccccc3C3(CC(N4C(=O)c5ccccc5C4=O)C(=O)O3)C2N1C(=O)OCc1ccccc1` (stereo not drawn) [NSC382796], for which the “IN-GCN2 interaction (%)” value is listed as 53.34%. The figure for `COc1ccc([C@@H]2CC(=O)c3c(O)cc(O[C@@H]4O[C@H](CO[C@@H]5O[C@@H](C)[C@H](O)[C@@H](O)[C@H]5O)[C@@H](O)[C@H](O)[C@H]4O)cc3O2)cc1O` [NSC31048] is 142.54%; for `CC(=O)C1CCCC(=O)/C=C/C(=O)O1` (stereo not drawn) [NSC180515] it is 108.07%; for `C=C(NC(=O)C(=C)NC(=O)c1csc(C2=N[C@@H]3c4csc(n4)[C@H]4NC(=O)c5csc(n5)[C@H]([C@](C)(O)[C@@H](C)O)NC(=O)[C@H]5CSC(=N5)/C(=C/C)NC(=O)[C@H]([C@@H](C)O)NC(=O)c5csc(n5)[C@]3(CC2)NC(=O)[C@H](C)NC(=O)C(=C)NC(=O)C(=C)NC(=O)[C@H](C(C)C)N[C@@H]2C=Cc3c([C@H](C)O)cc(nc3[C@H]2O)C(=O)O[C@@H]4C)n1)C(N)=O` [NSC285116] it is 79.00%.
